Measured values: US20260053834A1, “COVALENT MODIFIERS OF AKT1 AND USES THEREOF” (Terremoto Biosciences, Inc., priority 2023, published 2026)

Tests used:
[1] = tested on: LAPC4 prostate cancer cells, which express the AKT1 E17K allele; assay: Antiproliferative effects in LAPC4 cells (CellTiter Glo, 72 h); assay type: cell-based; settings: Homo sapiens, LAPC4, 72 h, read-out: LAPC4 proliferation IC50: GeoMean IC50
Procedure: Antiproliferative effects in LAPC4 cells. LAPC4 prostate cancer cells (Klein, K. A. et al. Nat Med 1997, 3, 402-408), which express the AKT1 E17K allele, were grown in IMDM media (Hyclone) supplemented with 12% FBS+1% P/S. To assess compound effects on growth, 1,000 cells/well were seeded in 384 well assay plates, incubated with compound dilutions dissolved in DMSO. After 72 h, intracellular ATP content was assessed with CellTiter Glo reagent (Promega) according to the manufacturer's instructions. IC50 values were calculated by fitting luminescence values to a log(inhibitor) vs. response Hill equation.

AKT1 E17K = biological target: T1, AKT1 E17K (Homo sapiens, UniProt P31749, E17K); assay: Live cell target engagement by NanoBRET competitive probe displacement, AKT1 E17K; assay type: binding; settings: transfected HEK293 cells, 2 h at 37° C., read-out: AKT1 E17K IC50: GeoMean IC50
T1 construct: expressed in transfected cells; host or cells: HEK293
T1 sequence (P31749 whole entry E17K): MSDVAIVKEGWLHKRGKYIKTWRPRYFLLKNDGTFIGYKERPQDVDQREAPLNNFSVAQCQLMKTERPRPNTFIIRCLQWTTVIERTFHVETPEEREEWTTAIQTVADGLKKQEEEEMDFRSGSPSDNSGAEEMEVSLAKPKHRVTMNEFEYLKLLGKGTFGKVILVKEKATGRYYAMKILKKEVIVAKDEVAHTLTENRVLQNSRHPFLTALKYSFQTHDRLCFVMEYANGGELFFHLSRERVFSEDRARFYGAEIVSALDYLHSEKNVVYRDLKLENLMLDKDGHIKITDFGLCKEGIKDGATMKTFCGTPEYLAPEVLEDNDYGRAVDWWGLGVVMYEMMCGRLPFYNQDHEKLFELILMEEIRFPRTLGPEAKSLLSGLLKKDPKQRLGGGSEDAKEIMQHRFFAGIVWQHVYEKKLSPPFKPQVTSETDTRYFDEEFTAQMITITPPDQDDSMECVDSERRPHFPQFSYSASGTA
Procedure: (§1) Determining live cell AKT1 E17K, AKT1 WT, and AKT2 target engagement by NanoBRET competitive probe displacement. Live cell target engagement assays were performed as described (Vasta, J. D. et al. Cell Chem Biol 2018, 25(11), 206-214). Briefly, HEK293 cells were transfected with plasmids encoding kinase-NanoLuciferase fusion proteins overnight. Cells were then treated with serial dilutions of compound and an ˜EC50 concentration of fluorescently-tagged ATP-competitive tracer (Promega). After incubation for 2 h at 37° C., luciferase substrate and extracellular luciferase inhibitor were added to all wells, and luminescent intensity at 460 nm and 600 nm were measured on a multimode plate-reader. The ratio of E600/E460 was calculated to give the tracer engagement signal (BRET). IC50 values were calculated by fitting BRET values to a log(inhibitor) vs. response Hill equation.

AKT1 WT = biological target: T2, AKT1 WT (Homo sapiens, UniProt P31749); assay: Live cell target engagement by NanoBRET competitive probe displacement, AKT1 WT; assay type: binding; settings: transfected HEK293 cells, 2 h at 37° C., read-out: AKT1 WT IC50: GeoMean IC50
T2 construct: expressed in transfected cells; host or cells: HEK293
T2 sequence (P31749 whole entry): as the sequence (P31749 whole entry E17K) above, with K17E counted along it
Procedure: as §1

AKT2 = biological target: T3, AKT2 (Homo sapiens, UniProt P31751); assay: Live cell target engagement by NanoBRET competitive probe displacement, AKT2; assay type: binding; settings: transfected HEK293 cells, 2 h at 37° C., read-out: AKT2 IC50: GeoMean IC50
T3 construct: expressed in transfected cells; host or cells: HEK293
T3 sequence (P31751 whole entry): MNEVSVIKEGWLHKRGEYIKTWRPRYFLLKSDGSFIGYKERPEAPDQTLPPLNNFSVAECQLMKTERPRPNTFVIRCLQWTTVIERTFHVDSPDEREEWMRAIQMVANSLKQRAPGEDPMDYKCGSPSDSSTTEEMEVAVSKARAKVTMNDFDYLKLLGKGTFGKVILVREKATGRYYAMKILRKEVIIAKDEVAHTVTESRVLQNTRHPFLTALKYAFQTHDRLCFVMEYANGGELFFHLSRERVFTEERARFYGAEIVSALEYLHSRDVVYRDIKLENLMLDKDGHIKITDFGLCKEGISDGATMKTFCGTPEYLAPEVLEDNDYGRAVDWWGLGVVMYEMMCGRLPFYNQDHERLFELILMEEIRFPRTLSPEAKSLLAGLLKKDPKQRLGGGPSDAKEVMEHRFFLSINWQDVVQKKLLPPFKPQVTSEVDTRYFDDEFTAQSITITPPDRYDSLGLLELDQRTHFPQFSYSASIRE
Procedure: as §1

Row | IC50 [1] [nM] | IC50 (AKT1 E17K) [nM] | IC50 (AKT1 WT) [nM] | IC50 (AKT2) [nM] | SMILES
1 | 10 to 100 | 10 to 100 | 10 to 100 | 100 to 2000 | Nc1ncccc1-c1nc2ccc(-c3ccccc3)nc2n1-c1ccc2c(c1)CC[C@@H]2NC(=O)c1cc(F)c(O)c(C=O)c1 [Example 8, N-[(1S)-5-[2-(2-aminopyridin-3-yl)-5-phenylimidazo[4,5-b]pyridin-3-yl]-2,3-dihydro-1H-inden-1-yl]-3-fluoro-5-formyl-4-hydroxybenzamide]
2 | 10 to 100 | < 10 | 10 to 100 | 100 to 2000 | Nc1ncccc1-c1nc2ccc(-c3ccccc3)nc2n1-c1ccc2c(c1)CCC2C(=O)NCc1ccc(C=O)c(O)c1 (stereo not shown) [Example 10, 5-(2-(2-aminopyridin-3-yl)-5-phenyl-3H-imidazo[4,5-b]pyridin-3-yl)-N-(4-formyl-3-hydroxybenzyl)-2,3-dihydro-1H-indene-1-carboxamide]
3 | 100 to 2000 | 10 to 100 | 10 to 100 | 100 to 2000 | Nc1ncccc1-c1nc2ccc(-c3ccccc3)nc2n1-c1ccc2c(c1)CC[C@@H]2NC(=O)c1cc(Cl)c(O)c(C=O)c1 [Example 11, N-[(1S)-5-[2-(2-aminopyridin-3-yl)-5-phenylimidazo[4,5-b]pyridin-3-yl]-2,3-dihydro-1H-inden-1-yl]-3-chloro-5-formyl-4-hydroxybenzamide]
4 | ≥ 2000 | 100 to 2000 | 100 to 2000 | 100 to 2000 | Nc1ncccc1-c1nc2ccc(-c3ccccc3)nc2n1-c1ccc2c(c1)CC[C@@H]2NC(=O)C1(c2cnc(C=O)c(O)c2)CC1 [Example 12, N-[(1S)-5-[2-(2-aminopyridin-3-yl)-5-phenylimidazo[4,5-b]pyridin-3-yl]-2,3-dihydro-1H-inden-1-yl]-1-(6-formyl-5-hydroxypyridin-3-yl)cyclopropane-1-carboxamide]
5 | 100 to 2000 | 10 to 100 | 100 to 2000 | ≥ 2000 | Cc1ccc2nc(-c3cccnc3N)n(-c3ccc4c(c3)CC[C@@H]4NC(=O)c3ccc(O)c(C=O)c3)c2n1 [Example 13, N-[(1S)-5-[2-(2-aminopyridin-3-yl)-5-methylimidazo[4,5-b]pyridin-3-yl]-2,3-dihydro-1H-inden-1-yl]-3-formyl-4-hydroxybenzamide]
6 | < 10 | < 10 | < 10 | 10 to 100 | CC(=O)Nc1ccc(C(=O)N[C@H]2CCc3cc(-n4c(-c5cccnc5N)nc5ccc(-c6ccccc6)nc54)ccc32)cc1C=O [Example 14, N-[(1S)-5-[2-(2-aminopyridin-3-yl)-5-phenylimidazo[4,5-b]pyridin-3-yl]-2,3-dihydro-1H-inden-1-yl]-4-acetamido-3-formylbenzamide]
7 | 100 to 2000 | 10 to 100 | 100 to 2000 | ≥ 2000 | Nc1ncccc1-c1nc2cccnc2n1-c1ccc2c(c1)CC[C@@H]2NC(=O)c1ccc(O)c(C=O)c1 [Example 15, N-[(1S)-5-[2-(2-aminopyridin-3-yl)imidazo[4,5-b]pyridin-3-yl]-2,3-dihydro-1H-inden-1-yl]-3-formyl-4-hydroxybenzamide]
8 | 100 to 2000 | 10 to 100 | 10 to 100 | 10 to 100 | Nc1ncccc1-c1nc2ccc(-c3ccccc3)nc2n1-c1ccc2c(c1)CC[C@@H]2NC(=O)c1cc(C=O)c(O)cc1F [Example 16, N-[(1S)-5-[2-(2-aminopyridin-3-yl)-5-phenylimidazo[4,5-b]pyridin-3-yl]-2,3-dihydro-1H-inden-1-yl]-2-fluoro-5-formyl-4-hydroxybenzamide]
9 | 100 to 2000 | 100 to 2000 | 100 to 2000 | 100 to 2000 | COc1cc(O)c(C=O)cc1C(=O)N[C@H]1CCc2cc(-n3c(-c4cccnc4N)nc4ccc(-c5ccccc5)nc43)ccc21 [Example 17, N-[(1S)-5-[2-(2-aminopyridin-3-yl)-5-phenylimidazo[4,5-b]pyridin-3-yl]-2,3-dihydro-1H-inden-1-yl]-5-formyl-4-hydroxy-2-methoxybenzamide]
10 | 100 to 2000 | 10 to 100 | 10 to 100 | 100 to 2000 | Nc1ncccc1-c1nc2ccc(-c3cccnn3)nc2n1-c1ccc2c(c1)CC[C@@H]2NC(=O)c1ccc(O)c(C=O)c1 [Example 18, N-[(1S)-5-[2-(2-aminopyridin-3-yl)-5-(pyridazin-3-yl)imidazo[4,5-b]pyridin-3-yl]-2,3-dihydro-1H-inden-1-yl]-3-formyl-4-hydroxybenzamide]
11 | 10 to 100 | < 10 | < 10 | < 10 | CN1CCN(c2cccc(-c3ccc4nc(-c5cccnc5N)n(-c5ccc6c(c5)CC[C@@H]6NC(=O)c5ccc(O)c(C=O)c5)c4n3)c2)CC1 [Example 19, (S)—N-(5-(2-(2-aminopyridin-3-yl)-5-(3-(4-methylpiperazin-1-yl)phenyl)-3H-imidazo[4,5-b]pyridin-3-yl)-2,3-dihydro-1H-inden-1-yl)-3-formyl-4-hydroxybenzamide]
12 | 10 to 100 | 10 to 100 | 10 to 100 | 100 to 2000 | Nc1ncccc1-c1nc2ccc(-c3ccc(F)cc3)nc2n1-c1ccc2c(c1)CC[C@@H]2NC(=O)c1ccc(O)c(C=O)c1 [Example 20, (S)—N-(5-(2-(2-aminopyridin-3-yl)-5-(4-fluorophenyl)-3H-imidazo[4,5-b]pyridin-3-yl)-2,3-dihydro-1H-inden-1-yl)-3-formyl-4-hydroxybenzamide]
13 | 10 to 100 | 10 to 100 | 10 to 100 | 10 to 100 | Nc1ncccc1-c1nc2ccc(-c3ccccc3F)nc2n1-c1ccc2c(c1)CC[C@@H]2NC(=O)c1ccc(O)c(C=O)c1 [Example 21, N-[(1S)-5-[2-(2-aminopyridin-3-yl)-5-(2-fluorophenyl)imidazo[4,5-b]pyridin-3-yl]-2,3-dihydro-1H-inden-1-yl]-3-formyl-4-hydroxybenzamide]
14 | 10 to 100 | 10 to 100 | 10 to 100 | 10 to 100 | Nc1ncccc1-c1nc2ccc(-c3ccccc3)nc2n1-c1ccc2c(c1)CC[C@@H]2NC(=O)c1cc(C=O)c(O)c(F)c1F [Example 22, N-[(1S)-5-[2-(2-aminopyridin-3-yl)-5-phenylimidazo[4,5-b]pyridin-3-yl]-2,3-dihydro-1H-inden-1-yl]-2,3-difluoro-5-formyl-4-hydroxybenzamide]
15 | 10 to 100 | 10 to 100 | 10 to 100 | 100 to 2000 | Nc1ncccc1-c1nc2ccc(-c3cccnc3)nc2n1-c1ccc2c(c1)CC[C@@H]2NC(=O)c1ccc(O)c(C=O)c1 [Example 23, N-[(1S)-5-[2-(2-aminopyridin-3-yl)-5-(pyridin-3-yl)imidazo[4,5-b]pyridin-3-yl]-2,3-dihydro-1H-inden-1-yl]-3-formyl-4-hydroxybenzamide]
16 | 10 to 100 | 10 to 100 | 10 to 100 | 100 to 2000 | Nc1ncccc1-c1nc2ccc(-c3ccncc3)nc2n1-c1ccc2c(c1)CC[C@@H]2NC(=O)c1ccc(O)c(C=O)c1 [Example 24, N-[(1S)-5-[2-(2-aminopyridin-3-yl)-5-(pyridin-4-yl)imidazo[4,5-b]pyridin-3-yl]-2,3-dihydro-1H-inden-1-yl]-3-formyl-4-hydroxybenzamide]
17 | 10 to 100 | 10 to 100 | 10 to 100 | 100 to 2000 | Nc1ncccc1-c1nc2ccc(-c3ccccn3)nc2n1-c1ccc2c(c1)CC[C@@H]2NC(=O)c1ccc(O)c(C=O)c1 [Example 25, (S)—N-(5-(2-(2-aminopyridin-3-yl)-5-(pyridin-2-yl)-3H-imidazo[4,5-b]pyridin-3-yl)-2,3-dihydro-1H-inden-1-yl)-3-formyl-4-hydroxybenzamide]
18 | 100 to 2000 | 10 to 100 | 100 to 2000 | 100 to 2000 | Nc1ncccc1-c1nc2ccc(-c3cccc(F)c3)nc2n1-c1ccc2c(c1)CC[C@@H]2NC(=O)c1ccc(O)c(C=O)c1 [Example 26, N-[(1S)-5-[2-(2-aminopyridin-3-yl)-5-(3-fluorophenyl)imidazo[4,5-b]pyridin-3-yl]-2,3-dihydro-1H-inden-1-yl]-3-formyl-4-hydroxybenzamide]
19 | 100 to 2000 | 10 to 100 | 100 to 2000 | 100 to 2000 | Nc1ncccc1-c1nc2ccc(-c3ccccc3)nc2n1-c1ccc2c(c1)CCC2C(=O)Nc1ccc(O)c(C=O)c1 (stereo not shown) [Example 27, 5-[2-(2-aminopyridin-3-yl)-5-phenylimidazo[4,5-b]pyridin-3-yl]-N-(3-formyl-4-hydroxyphenyl)-2,3-dihydro-1H-indene-1-carboxamide]
